For this experiment, the target named is PIK3CB;PIK3CG;PIK3CD;PIK3CA (human) (UniProt P48736). Put plainly: Enzyme Assay.

pIC50: −log10 of the molar value.

By pIC50 is commonly meant −log10 of the IC50, conventionally taken in molar units. `O=C(c1nn([C@H]2CCCN(CCN3CC(F)(F)C3)C2)c2c1CS(=O)(=O)c1c(F)cccc1-2)N1CCOCC1` had a negative logarithm of the IC50 (pIC50) of 7.66.
For the molecule `COCCOCCN1CCCC(n2nc(C(=O)N3CCOCC3)c3c2-c2ccccc2S(=O)(=O)C3)C1` (stereo not drawn), the pIC50 is 6.20.
`CC(C)(C)OC(=O)N1CCCC(n2nc(C(=O)N3CCOCC3)c3c2-c2ccccc2S(=O)(=O)C3)CC1` (stereo not drawn) gave a pIC50 of 6.08.
Molecule `Cn1nc(C(=O)N2CCOCC2)c2c1-c1cccc(F)c1S(=O)(=O)C2` gave a negative-log IC50 (pIC50) of 6.16.
As to `O=C(c1nn(C2CCN(CC3CCOC3)C2)c2c1CS(=O)(=O)c1ccccc1-2)N1CCOCC1` (stereo not drawn), the pIC50 is 6.45.
As for `O=C(c1nn(CCO)c2c1CS(=O)(=O)c1ccccc1-2)N1CCOCC1`, the figure is 6.18; as for `O=C(c1nn(-c2ccccc2)c2c1CS(=O)(=O)c1c(Br)cccc1-2)N1CCOCC1`, 6.31.
With `COc1ccc2c(c1)S(=O)(=O)Cc1c(C(=O)N3CCOCC3)nn([C@H]3CCCN(CC4CCOC4)C3)c1-2` (stereo partly drawn), the pIC50 was 7.36.
`O=C(c1nn(-c2ccc(CN3CCOCC3)cc2)c2c1CS(=O)(=O)c1ccc(F)cc1-2)N1CCOCC1` gave a negative-log IC50 (pIC50) of 6.26.
As for `COCCn1nc(C(=O)N2CCOCC2)c2c1-c1ccccc1S(=O)(=O)C2`, the figure is 5.89; as for `O=C(c1nn(C2CCCN(CCN3CC[C@H](F)C3)C2)c2c1CS(=O)(=O)c1ccccc1-2)N1CCOCC1` (stereo partly drawn), 7.14; as for `O=C(c1nn(-c2ccccc2)c2c1CS(=O)(=O)c1ccncc1-2)N1CCOCC1`, 5.52.
Molecule `COCc1cccc(-n2nc(C(=O)N3CCOCC3)c3c2-c2ccccc2S(=O)(=O)C3)c1` gave a negative-log IC50 (pIC50) of 6.00.
For `O=C(c1nn(Cc2ccccn2)c2c1CS(=O)(=O)c1ccccc1-2)N1CCOCC1`, the negative-log IC50 (pIC50) is 5.40.
In the case of `COc1ccc2c(c1)S(=O)(=O)Cc1c(C(=O)N3CCOCC3)nn([C@H]3CCCN(CCN4CCOCC4)C3)c1-2`, the negative-log IC50 (pIC50) was 7.62.
With `Cc1noc(C)c1-c1cccc(-n2nc(C(=O)N3CCOCC3)c3c2-c2ccccc2S(=O)(=O)C3)c1` the figure was 6.52; with `O=C(c1nn(-c2ccc(CN3CCCCC3)nc2)c2c1CS(=O)(=O)c1ccccc1-2)N1CCOCC1`, 6.43; with `O=C(c1nn(C2CCN(CCCl)C2)c2c1CS(=O)(=O)c1ccccc1-2)N1CCOCC1` (stereo not drawn), 6.52.
On to `O=C(c1nn([C@H]2CCCN(C3CCOCC3)C2)c2c1CS(=O)(=O)c1ccccc1-2)N1CCOCC1`, for which the negative logarithm of the IC50 (pIC50) is 7.10.
Molecule `O=C(c1nn(-c2cccc(-c3nccs3)c2)c2c1CS(=O)(=O)c1ccccc1-2)N1CCOCC1` had a pIC50 of 5.37.
In the case of `O=C(c1nn(-c2ccccn2)c2c1CS(=O)(=O)c1ccccc1-2)N1CCOCC1`, the pIC50 is 5.80.
Molecule `O=C(c1nn(-c2cccc(CN3CCCC(F)(F)C3)c2)c2c1CS(=O)(=O)c1ccccc1-2)N1CCOCC1` showed a pIC50 of 5.81.
Take `COCCN1CCC(n2nc(C(=O)N3CCOCC3)c3c2-c2ccccc2S(=O)(=O)C3)C1` (stereo not drawn): the negative logarithm of the IC50 (pIC50) was 5.83.
With `Cc1noc(-c2cccc(-n3nc(C(=O)N4CCOCC4)c4c3-c3ccccc3S(=O)(=O)C4)c2)n1`, the negative-log IC50 (pIC50) was 5.57.
`COC1CCN(CCN2CCC[C@H](n3nc(C(=O)N4CCOCC4)c4c3-c3ccc(F)cc3S(=O)(=O)C4)C2)CC1` had a pIC50 of 7.89.
`O=C(c1nn(-c2cccc(Cl)c2)c2c1CS(=O)(=O)c1ccccc1-2)N1CCOCC1`: the pIC50 was 6.36.
In turn, `O=C(c1nn(-c2cccc(-c3ccoc3)c2)c2c1CS(=O)(=O)c1ccccc1-2)N1CCOCC1` gave a pIC50 of 6.08.
For `CC(C)c1ccc(-n2nc(C(=O)N3CCOCC3)c3c2-c2ccccc2S(=O)(=O)C3)cc1`, the pIC50 was 5.83.
For the molecule `O=C(c1nn(C2CCCNC2)c2c1CS(=O)(=O)c1ccccc1-2)N1CCOCC1` (stereo not drawn), the pIC50 was 5.52.
In the case of `O=C(c1nn([C@@H]2CCCN(C3CCOCC3)CC2)c2c1CS(=O)(=O)c1ccccc1-2)N1CCOCC1`, the pIC50 is 6.98.
`O=C(c1nn([C@H]2CCCN(CCC3CCOCC3)C2)c2c1CS(=O)(=O)c1c(F)cccc1-2)N1CCOCC1` had a pIC50 of 8.22.
`COc1ccc(-n2nc(C(=O)N3CCOCC3)c3c2-c2ccccc2S(=O)(=O)C3)cc1` had a pIC50 of 6.13.
On to `O=C(c1nn(Cc2ccccc2)c2c1CS(=O)(=O)c1ccccc1-2)N1CCOCC1`, for which the negative logarithm of the IC50 (pIC50) was 5.92.
With `O=C(c1nn([C@H]2CCCN(C3CCCOC3)C2)c2c1CS(=O)(=O)c1ncccc1-2)N1CCOCC1` (stereo partly drawn) the figure was 7.44; with `CC1(C)CN(CCN2CCC[C@H](n3nc(C(=O)N4CCOCC4)c4c3-c3ccccc3S(=O)(=O)C4)C2)CCO1`, 7.14; with `COCCN(C)Cc1ccc(-n2nc(C(=O)N3CCOCC3)c3c2-c2ccccc2S(=O)(=O)C3)cc1`, 6.95.
Molecule `O=C(c1nn(C2CCCN(CCN3CCCC(F)(F)C3)C2)c2c1CS(=O)(=O)c1ccccc1-2)N1CCOCC1` (stereo not drawn) showed a pIC50 of 7.08.
As for `O=C(c1nn([C@H]2CCCN(CCN3CCCC3)C2)c2c1CS(=O)(=O)c1ccccc1-2)N1CCOCC1`, the pIC50 is 8.15.
In turn, `O=C(c1nn(C2CCOCC2)c2c1CS(=O)(=O)c1c(F)cccc1-2)N1CCOCC1` gave a negative-log IC50 (pIC50) of 5.99.
Take `O=C(c1nn(-c2cccc(CN3CCSCC3)c2)c2c1CS(=O)(=O)c1ccccc1-2)N1CCOCC1`: the negative logarithm of the IC50 (pIC50) is 6.63.
`O=C(c1nn(C2CCCN(CCN3CC(F)(F)C3)C2)c2c1CS(=O)(=O)c1ccccc1-2)N1CCOCC1` (stereo not drawn) had a negative logarithm of the IC50 (pIC50) of 7.44.
For the molecule `O=C(c1nn([C@H]2CCCN(CCN3CCOCC3)C2)c2c1CS(=O)(=O)c1c(F)cccc1-2)N1CCOCC1`, the pIC50 was 7.80.
With `CN1CCC(N2CCC[C@H](n3nc(C(=O)N4CCOCC4)c4c3-c3ccccc3S(=O)(=O)C4)C2)CC1` the figure was 7.55.
For `COc1ccc2c(c1)S(=O)(=O)Cc1c(C(=O)N3CCOCC3)nn([C@@H]3CCCN(CCC4CCOCC4)C3)c1-2`, the pIC50 was 4.99.
Consider `CS(=O)(=O)Nc1ccc2c(c1)-c1c(c(C(=O)N3CCOCC3)nn1-c1ccccc1)CS2(=O)=O`, for which the negative logarithm of the IC50 (pIC50) was 5.88.
`CC(C)Cn1nc(C(=O)N2CCOCC2)c2c1-c1ccccc1S(=O)(=O)C2` gave a negative-log IC50 (pIC50) of 6.02.
Turning to `O=C(c1nn(C2CCCCC2)c2c1CS(=O)(=O)c1ccccc1-2)N1CCOCC1`, the pIC50 is 6.87.
Molecule `CNc1cccc2c1S(=O)(=O)Cc1c(C(=O)N3CCOCC3)nn(-c3ccccc3)c1-2` gave a negative logarithm of the IC50 (pIC50) of 5.45.
`CS(=O)(=O)c1cccc(-n2nc(C(=O)N3CCOCC3)c3c2-c2ccccc2S(=O)(=O)C3)c1` had a negative-log IC50 (pIC50) of 5.59.
Take `O=C(c1nn(-c2cccc(-c3ccccc3)c2)c2c1CS(=O)(=O)c1ccccc1-2)N1CCOCC1`: the pIC50 is 6.12.
With `COCCN1CCC(n2nc(C(=O)N3CCOCC3)c3c2-c2ccccc2S(=O)(=O)C3)CC1` the figure was 5.72.
Turning to `O=C(c1nn(C2CCCN(CCN3CCOCC3)C2)c2c1CS(=O)(=O)c1c(F)cccc1-2)N1CCOCC1` (stereo not drawn), the negative-log IC50 (pIC50) was 7.80.
The molecule `O=C(c1nn(C2CCCN(CCC3CCOCC3)C2)c2c1CS(=O)(=O)c1c(Cl)cccc1-2)N1CCOCC1` (stereo not drawn) showed a negative-log IC50 (pIC50) of 7.42.
As for `CN1CCCC(n2nc(C(=O)N3CCOCC3)c3c2-c2ccccc2S(=O)(=O)C3)C1` (stereo not drawn), the figure is 6.11; as for `O=C(CC1CCOCC1)N1CCC[C@H](n2nc(C(=O)N3CCOCC3)c3c2-c2ccccc2S(=O)(=O)C3)C1`, 6.46.
The molecule `COCCCC1c2c(C(=O)N3CCOCC3)nn(-c3ccccc3)c2-c2ccccc2S1(=O)=O` (stereo not drawn) had a negative-log IC50 (pIC50) of 5.29.
Consider `O=C(CC1CCCCC1)N1CCC[C@H](n2nc(C(=O)N3CCOCC3)c3c2-c2ccccc2S(=O)(=O)C3)C1`, for which the negative logarithm of the IC50 (pIC50) was 6.13.
For `CS(=O)(=O)C1CCN(Cc2ccc(-n3nc(C(=O)N4CCOCC4)c4c3-c3ccccc3S(=O)(=O)C4)cc2)C1` (stereo not drawn), the negative logarithm of the IC50 (pIC50) was 6.04.
Turning to `O=C(c1nn(-c2ccccc2)c2c1C(Cc1ccccc1)S(=O)(=O)c1ccccc1-2)N1CCOCC1` (stereo not drawn), the pIC50 is 5.61.
With `CCCn1nc(C(=O)N2CCOCC2)c2c1-c1ccccc1S(=O)(=O)C2`, the pIC50 is 6.19.
`O=C(c1ccc2c(c1)-c1c(c(C(=O)N3CCOCC3)nn1-c1ccccc1)CS2(=O)=O)N1CCOCC1`: the pIC50 was 5.52.
With `O=C(c1nn(C2CCCN(CC3CCOC3)C2)c2c1CS(=O)(=O)c1ccccc1-2)N1CCOCC1` (stereo not drawn), the negative-log IC50 (pIC50) is 7.01.
On to `O=C(c1nn([C@H]2CCCN(CCN3CC[C@@H](F)C3)C2)c2c1CS(=O)(=O)c1ccccc1-2)N1CCOCC1`, for which the pIC50 was 7.49.
`O=C(O)c1nn(-c2ccc(CN3CCOCC3)cc2)c2c1CS(=O)(=O)c1ccccc1-2` gave a pIC50 of 5.39.
In turn, `O=C(c1nn([C@@H]2CCCN(CCC3CCOCC3)C2)c2c1CS(=O)(=O)c1c(F)cccc1-2)N1CCOCC1` had a pIC50 of 5.72.
Molecule `COCCN1CCC[C@H](n2nc(C(=O)N3CCOCC3)c3c2-c2cccc(F)c2S(=O)(=O)C3)C1` gave a negative-log IC50 (pIC50) of 7.51.
In the case of `O=C(c1nn(-c2ccccc2Br)c2c1CS(=O)(=O)c1ccccc1-2)N1CCOCC1`, the pIC50 is 5.26.
For the molecule `CNCc1ccc(-n2nc(C(=O)N3CCOCC3)c3c2-c2ccccc2S(=O)(=O)C3)cc1`, the negative-log IC50 (pIC50) was 6.65.
Turning to `O=C(c1nn(C2CCN(CCN3CC(F)(F)C3)C2)c2c1CS(=O)(=O)c1ccccc1-2)N1CCOCC1` (stereo not drawn), the pIC50 is 6.81.
As for `O=C(c1nn(C2CCN(CCC3CCOCC3)C2)c2c1CS(=O)(=O)c1c(F)cccc1-2)N1CCOCC1` (stereo not drawn), the figure is 7.68; as for `O=C(c1nn(C2CCCN(CCC3CCOCC3)C2)c2c1CS(=O)(=O)c1c(F)cccc1-2)N1CCOCC1` (stereo not drawn), 7.66.
`O=C(c1nn(-c2cccc(CN3CCC(F)CC3)c2)c2c1CS(=O)(=O)c1ccccc1-2)N1CCOCC1` gave a pIC50 of 6.36.
Molecule `CN1CCCC1CCn1nc(C(=O)N2CCOCC2)c2c1-c1ccccc1S(=O)(=O)C2` (stereo not drawn) gave a negative logarithm of the IC50 (pIC50) of 5.91.
With `O=C(c1nn(C2CCC(F)(F)CC2)c2c1CS(=O)(=O)c1ccccc1-2)N1CCOCC1` the figure was 6.41; with `COc1ccc2c(c1)-c1c(c(C(=O)N3CCOCC3)nn1-c1ccccc1)CS2(=O)=O`, 5.47.
`O=C(c1nn(C2CCCCC2)c2c1CS(=O)(=O)c1cc(Br)ccc1-2)N1CCOCC1` had a pIC50 of 6.16.
For `O=C(c1nn(C2CCN(CCN3CC[C@@H](F)C3)C2)c2c1CS(=O)(=O)c1ccccc1-2)N1CCOCC1` (stereo partly drawn), the negative-log IC50 (pIC50) is 6.92.
On to `O=C(c1nn([C@H]2CCCN(CCN3CC(F)(F)C3)C2)c2c1CS(=O)(=O)c1ccccc1-2)N1CCOCC1`, for which the pIC50 is 7.77.

The values are drawn from the Kinase Knowledgebase extract (Sharma et al. 2016).
